Some test systems named below: LOX IMVI melanoma; MDA-MB-231 breast; RXF 393 renal; SK-MEL-2 melanoma; SNB-75 CNS; UACC-257 melanoma; UACC-62 melanoma; OVCAR-5 ovarian.
What all share (assay): NCI-60 cell line screen, 48 h

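Five concentrations, 48 hours, 96-well plates. GI50 is the concentration that inhibits growth by half. TGI: concentration producing complete growth inhibition.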

Take `Cc1ccc(N=Nc2c(N)nn(-c3ccccc3)c2N)cc1`: the GI50 is 5.78 µM in the assay on LOX IMVI melanoma; 7.41 µM with MDA-MB-231 breast; 2900 nM with RXF 393 renal; 0.464 µM with SK-MEL-2 melanoma; 2.3 µM in the assay on SNB-75 CNS; 42.9 µM in the assay with UACC-257 melanoma. The GI50 with UACC-62 melanoma is 0.874 µM. For the same compound, the TGI in the assay with LOX IMVI melanoma is above 100 µM; in the assay on MDA-MB-231 breast, above 100 µM; with RXF 393 renal, above 100 µM; in the assay on SNB-75 CNS, above 78.3 µM; with UACC-257 melanoma it was above 100 µM; with UACC-62 melanoma, above 100 µM.

Consider `COc1ccc2c(c1)sc1nc(-c3ccccc3)c(-c3ccc(O)c(OC)c3)n12`, for which the GI50 with LOX IMVI melanoma is 7.67 µM; in the assay with MDA-MB-231 breast, 9.8 µM; with OVCAR-5 ovarian it was 33.7 µM; in the assay on RXF 393 renal, 4900 nM; in the assay with SK-MEL-2 melanoma, 21.3 µM; in the assay on SNB-75 CNS, 11.1 µM. Further, the GI50 is above 100 µM in the assay on UACC-257 melanoma and 8.29 µM in the assay with UACC-62 melanoma. In addition, the TGI in the assay with LOX IMVI melanoma was above 100 µM; with MDA-MB-231 breast it was above 100 µM; with OVCAR-5 ovarian it was above 100 µM; in the assay on RXF 393 renal, 29.8 µM; with SK-MEL-2 melanoma, above 100 µM; with SNB-75 CNS, above 100 µM. The TGI with UACC-257 melanoma and in the assay with UACC-62 melanoma was above 100 µM each time.

`O=C1c2cc3c(cc2[C@@H]2[C@H]1c1ccc([N+](=O)[O-])cc1C(=O)N2CCCCl)OCO3`: the GI50 in the assay on LOX IMVI melanoma is below 0.01 µM; in the assay with MDA-MB-231 breast, below 0.0416 µM; in the assay with OVCAR-5 ovarian it was below 0.0144 µM; with RXF 393 renal, below 10 nM; with SK-MEL-2 melanoma, 0.0827 µM; in the assay on SNB-75 CNS, below 0.0253 µM. Further, the GI50 in the assay with UACC-257 melanoma and in the assay with UACC-62 melanoma was below 0.01 µM throughout. The TGI in the assay with LOX IMVI melanoma was below 0.01 µM; with MDA-MB-231 breast it was 2.38 µM; in the assay on RXF 393 renal, 10.1 µM; in the assay on SK-MEL-2 melanoma it was above 100 µM; with SNB-75 CNS, above 100 µM; in the assay on UACC-62 melanoma, below 0.0171 µM.

Consider `CCOC(=O)c1ccc(Nc2sc(C(=O)c3cccc([N+](=O)[O-])c3)c(N)c2C#N)cc1`, for which the GI50 was 0.148 µM in the assay with LOX IMVI melanoma; 1.1 µM with MDA-MB-231 breast; 2.25 µM in the assay with OVCAR-5 ovarian; 167 nM in the assay with RXF 393 renal; 0.403 µM in the assay with SK-MEL-2 melanoma; 0.116 µM with SNB-75 CNS. The GI50 was 0.301 µM with UACC-257 melanoma and 0.0789 µM in the assay on UACC-62 melanoma. Further, the TGI with LOX IMVI melanoma is 15.4 µM; in the assay on MDA-MB-231 breast, 9.63 µM; with OVCAR-5 ovarian it was 29.6 µM; in the assay on RXF 393 renal, 24.8 µM; in the assay with SK-MEL-2 melanoma, 24.4 µM; in the assay on SNB-75 CNS it was 0.65 µM. The results for the TGI with UACC-257 melanoma and in the assay with UACC-62 melanoma were above 31.6 µM and 23.4 µM, respectively.

In the case of `ICCC(c1ccccc1)(c1ccccc1)c1ccccc1`, the GI50 with LOX IMVI melanoma was 4.16 µM; in the assay with MDA-MB-231 breast, 4.41 µM; in the assay with OVCAR-5 ovarian, 13.4 µM; in the assay on RXF 393 renal, 8900 nM; with SK-MEL-2 melanoma, 4.18 µM; with SNB-75 CNS, 1.7 µM. Moreover, the GI50 in the assay with UACC-257 melanoma was 1.7 µM; in the assay with UACC-62 melanoma, 2.46 µM. The TGI in the assay with LOX IMVI melanoma is 19.2 µM; in the assay with MDA-MB-231 breast, 19.8 µM; in the assay with OVCAR-5 ovarian, 27.1 µM; in the assay on RXF 393 renal it was 22.8 µM; in the assay with SK-MEL-2 melanoma, 13.7 µM; with SNB-75 CNS, 13 µM. The TGI turned out to be 3.35 µM in the assay on UACC-257 melanoma and 5.74 µM in the assay with UACC-62 melanoma.

Take `C[C@H]1[C@H](C)CC[C@]2(C(=O)O)CC[C@]3(C)C(=CC[C@@H]4[C@@]5(C)CC[C@H](OC(=O)/C=C/c6ccc(O)cc6)C(C)(C)[C@@H]5CC[C@]43C)[C@H]12`: the GI50 in the assay with LOX IMVI melanoma is 4.73 µM; in the assay on MDA-MB-231 breast, 5.1 µM; in the assay with OVCAR-5 ovarian, 5.27 µM; in the assay on RXF 393 renal it was 1830 nM; in the assay with SK-MEL-2 melanoma, 13.5 µM; in the assay with SNB-75 CNS, 4.82 µM. Further, the GI50 with UACC-257 melanoma was 12.1 µM; with UACC-62 melanoma it was 15.1 µM. The TGI is 16.6 µM with LOX IMVI melanoma; 18.3 µM with MDA-MB-231 breast; 12.7 µM in the assay with OVCAR-5 ovarian; 5.42 µM with RXF 393 renal; 50.1 µM in the assay with SK-MEL-2 melanoma; 28.9 µM in the assay on SNB-75 CNS. In addition, the TGI came out at 51.5 µM in the assay on UACC-257 melanoma and 31.6 µM in the assay on UACC-62 melanoma.

Regarding `O=C(O)C[O][Sb][O]CC(=O)O`, the GI50 in the assay with LOX IMVI melanoma is above 100 µM; in the assay with MDA-MB-231 breast it was above 100 µM; in the assay with OVCAR-5 ovarian, above 100 µM; with RXF 393 renal it was above 100000 nM; in the assay with SK-MEL-2 melanoma it was above 100 µM; with SNB-75 CNS, above 100 µM. For the same compound, the GI50 in the assay with UACC-62 melanoma was above 100 µM. Further, the TGI in the assay on LOX IMVI melanoma, with MDA-MB-231 breast, with OVCAR-5 ovarian, in the assay on RXF 393 renal, in the assay on SK-MEL-2 melanoma and in the assay on SNB-75 CNS was above 100 µM each time. For the same compound, the TGI with UACC-62 melanoma was above 100 µM.

As to `CCN(C(=O)CCl)C(C)(C)C(SSSC(c1ccc(Cl)cc1)C(C)(C)N(CC)C(=O)CCl)c1ccc(Cl)cc1` (stereo not drawn), the GI50 was 3.1 µM with LOX IMVI melanoma; 3.58 µM in the assay with MDA-MB-231 breast; 13.8 µM with OVCAR-5 ovarian; 2950 nM in the assay on RXF 393 renal; 6.14 µM with SK-MEL-2 melanoma; 13.3 µM in the assay on SNB-75 CNS. In the assay on UACC-257 melanoma, the GI50 was 1.82 µM. For the same compound, the TGI in the assay on LOX IMVI melanoma amounted to 10.7 µM; with MDA-MB-231 breast it was 14.6 µM; with OVCAR-5 ovarian, 27.9 µM; in the assay with RXF 393 renal, 13.8 µM; in the assay on SK-MEL-2 melanoma, 18.7 µM; in the assay with SNB-75 CNS it was 29.5 µM. Besides, in the assay with UACC-257 melanoma, the TGI stood at 3.48 µM.

`O=C(OCC1OC(OC(=O)c2cc(O)c(O)c(OC(=O)c3cc(O)c(O)c(O)c3)c2)C(OC(=O)c2cc(O)c(O)c(OC(=O)c3cc(O)c(O)c(O)c3)c2)C(OC(=O)c2cc(O)c(O)c(OC(=O)c3cc(O)c(O)c(O)c3)c2)C1OC(=O)c1cc(O)c(O)c(OC(=O)c2cc(O)c(O)c(O)c2)c1)c1cc(O)c(O)c(OC(=O)c2cc(O)c(O)c(O)c2)c1` (stereo not drawn): the GI50 in the assay with LOX IMVI melanoma is 10 µM; in the assay on MDA-MB-231 breast, 9.85 µM; with RXF 393 renal, 30300 nM; in the assay on SK-MEL-2 melanoma, 20.6 µM; with SNB-75 CNS it was 38.8 µM; in the assay on UACC-257 melanoma, 20.9 µM. Besides, in the assay with UACC-62 melanoma, the GI50 was 14.3 µM. Moreover, the TGI was 25.4 µM with LOX IMVI melanoma; 36.7 µM in the assay on MDA-MB-231 breast; above 50 µM in the assay with RXF 393 renal; above 50 µM in the assay on SK-MEL-2 melanoma; above 50 µM in the assay with SNB-75 CNS; above 50 µM in the assay on UACC-257 melanoma. This compound also registered a TGI in the assay on UACC-62 melanoma above 50 µM.
